Experiments:
Format in all cases: cell-based, human
[1] = system: OLIG2-GFP knock-in hESC reporter line; test: OLIG2-GFP expression by flow cytometry during differentiation of hESC reporter line; conditions: RA 100 nM from beginning of induction, SHH 100 ng/ml from day 8, or SAG replacing SHH, added to RA
Experimental: RA at a concentration of 100 nM from day 0 results in the highest yield of GFP^+ cells. […] Negative: human embryonic stem cell (hESC) line RUES1. […] Error bars are SEM (N=3). […] Only GFP^+ cells form spheres, providing enrichment to the GFP^+ population.
An OLIG2-GFP knock-in hESC reporter line was used to track OLIG2^+ progenitors by live fluorescent imaging. First, PAX6^+ cells were induced using dual inhibition of SMAD signaling in adherent cultures. Next, to mimic the embryonic spinal cord environment, different concentrations of RA and/or SHH were applied at various times and quantified OLIG2-GFP expression through flow cytometry (FIG. 2A).
At day 12, cells were detached and placed into low-attachment plates to promote their aggregation into spheres. The minimum number of cells required to form a sphere was at least 100 cells, and we noted that the majority of cells in the spheres were GFP^+. […]
(§1) Cells were enzymatically harvested by Accutase™ treatment for 25 minutes at 37° C. to obtain a single cell suspension. Cells were then re-suspended in 100 μl of their respective medium containing the appropriate amount of either primary antibody or fluorescence-conjugated antibodies and were incubated on ice for 30 minutes shielded from light. […] Flow cytometry data were analyzed using BD FACSDiva™ software.

[2] = system: O4^+ cells; test: FACS analysis for O4+ cells at day 75 of differentiation; conditions: RA only vs RA and SAG in the first 12 days of differentiation
Experimental: Endogenous SHH levels are higher in the samples that were not exposed to SHH/SAG. Error bars are SEM (N=3). […] Negative Control: APC-conjugated secondary antibody only. […] A substantial population of GFP^+ cells is present only under the dual inhibition of SMAD proteins, indicating a synergistic effect between RA and the dual inhibition of SMAD. DSi: Dual SMAD inhibition; SB: SB431542; LDN: […].
Spheres were plated on pO/L plates, as described above, in PDGF Medium at day 30, changing 2/3 of the PDGF Medium every other day until day 75 of differentiation. The appearance of O4^+ cells was assessed by live O4 staining from day 55 onwards (FIG. 6). At day 75, O4+ OPCs could be isolated by FACS (FIG. 7I). Alternatively, for terminal oligodendrocyte differentiation (FIG. 7G, 7H), cells were cultured in Glial Medium from day 75, changing 2/3 of the medium every 3 days for two weeks.
as §1

[3] = system: CD49f^+ astrocytes; test: Intracellular Ca2+ imaging of hiPSC-astrocytes after ATP application; conditions: 100 μM ATP, 60s application
Excerpt: See also FIG. 32. […] Bar graphs show the maximum number of evoked spikes per 1 second stimulus (n=8/18), the maximum firing frequency in hertz (Hz) (n=5/15), the amplitude adaptation ratio between first and last action potential (n=5/15), the maximum action potential height (mV) (n=8/17), and the frequency of spontaneous excitatory post-synaptic currents (Hz) (n=5/9) in hiPSC-neurons at day 50 when cultured alone vs. with astrocytes during days 33-50. Dots correspond to 3 different lines. Each dot represents an independent cell. n=neurons alone/neurons co-cultured with astrocytes. Error bars show mean±standard deviation. p-values were calculated using a two-tailed, unpaired t-test. […] Scale bar, 50 μm. […] Error bars show mean±standard deviation (n=3 technical replicates). p-values were calculated using a two-tailed, unpaired t-test. […] Error bars show mean±standard deviation (n=4 technical replicates). p-values were calculated using a one-way ANOVA with Dunnett's correction for multiple comparisons. […] Error bars show mean±standard deviation. p-values were calculated using a one-way ANOVA with Dunnett's correction for multiple comparisons.
CD49f^+ astrocytes from three iPSC lines were cultured on glass coverslips coated with 0.1 mg/ml poly-L-ornithine followed by 10 μg/ml laminin. […] Fluorescence was recorded at 2 Hz by a cooled CCD camera (Hamamatsu™ Orca R^2). […]

Row | Structure (SMILES) | OLIG2^+ progenitors [1] [%] | decrease in the O4^+ population in cells not provided with SAG [2] [%] | [Ca^2+]i response to extracellular ATP [3]
1 | CC1=C(/C=C/C(C)=C/C=C/C(C)=C/C(=O)O)C(C)(C)CCC1 [RA, all trans retinoic acid] | 40.6 |  | 
2 | CNC1CCC(N(Cc2cccc(-c3ccncc3)c2)C(=O)c2sc3ccccc3c2Cl)CC1 (stereo not shown) [SAG] | 70.1 | 56 | 
3 | Nc1ncnc2c1ncn2[C@@H]1O[C@H](COP(=O)(O)OP(=O)(O)OP(=O)(O)O)[C@@H](O)[C@H]1O [ATP] |  |  | robustly responded

— patent publication US20220251504A1, “FUNCTIONAL ASTROCYTES DERIVED FROM PLURIPOTENT STEM CELLS AND METHODS OF MAKING AND USING THE SAME” (New York Stem Cell Foundation, Inc., priority 2019, published 2022)
